# Values of other authors as cited in PMC10425256, “Antioxidant and Enzyme Inhibitory Potential of Streptomyces sp. G-18 Grown in Various Media” (International Journal of Microbiology, 2023).
Molecule,AChE inhibition (AChE),inhibition against lipase enzymes (lipase enzymes)
CC(C)=CCC/C(C)=C/Cc1ccc(O)c2nc3cccc(O)c3nc12 [Geranylphenazinediol],low micromolar range,
CCCCC/C=C\C/C=C\C[C@@H](C[C@@H]1OC(=O)[C@H]1CCCCCC)OC(=O)[C@H](CC(C)C)NC=O [lipstatin],,showed inhibition
Cyclipostins,,showed inhibition
